Experimental findings from US10898469B2, “Imidazolylamide derivative” (Sumitomo Dainippon Pharma Co., Ltd., priority 2016, dated 2021) are described below.

Holding throughout (format): cell-based, human
For data set [1], the system named is HCT-116 cells. The data set can be described thus: Inhibition test for sphere-forming ability of cancer cells (Test Example 1), HCT-116. As to conditions: for IC50 / (100%-inhibition rate of cell proliferation) at 1 μmol/L, HCT-116 / viability at 1 µM: HCT-116 cells; for IC50: concentration for 50% inhibition of cell proliferation, read-out: IC50 (μmol/L) HCT-116 (Sphere IC50 value); for (100%-inhibition rate of cell proliferation) at 1 μmol/L, HCT-116 / viability at 1 µM: value with %, 1 μmol/L; for viability at 1 µM: read-out: (100%-inhibition rate of cell proliferation) at 1 μmol/L. An excerpt: (§1) The reliable methods established for measuring the self-renewal ability of cells which is one of the CSC's properties include a method for measuring the sphere-forming ability of cancer cells in non-adherent condition in the absence of serum (Cancer Res 65, 5506-5511 (2005)). Human colorectal cancer-derived HCT-116 cells, human colon-adenocarcinoma-derived HT-29 cells, and human pharyngeal cancer-derived FaDu cells were available from American Type Culture Collection (ATCC). HCT-116 cells and HT-29 cells were cultured at 37° C. under 5% CO2 using the McCoy's 5a medium containing 10% fetal bovine serum (FBS) and 1% penicillin/streptomycin, and FaDu cells were cultured at 37° C. under 5% CO2 using the MEM medium containing 10% FBS, 1% non-essential amino acid, 1% sodium pyruvate, and 1% penicillin/streptomycin. HCT-116 cells, HT-29 cells, and FaDu cells were seeded in a 384 Well Black Clear Bottom Ultra-Low Attachment Microplate (Corning Cat. No. 3827) in an amount of 350-800 cells/well using the DMEM/F12 medium containing 2% B27 supplement (GIBCO), 20 ng/mL epidermal growth factor (EGF) (peprotech), 10 ng/mL basic fibroblast growth factor (bFGF) (peprotech), 5 μg/mL insulin (Sigma), and 1% penicillin/streptomycin. Each test compound was added into each well to adjust the final concentration of DMSO to 0.1%, and the cells were cultured for 4 days. The number of viable cells in each well was then measured with CellTiter-Glo® Luminescent Cell Viability Assay (Promega) to calculate the concentration of each test compound for 50% inhibition of cell proliferation (Sphere IC50 value; μmol/L).
(§2) The experiment of Test Example 1 was performed for each compound of each Example. The concentration of each test compound for 50% inhibition of cell proliferation (Sphere IC50 value; μmol/L) is shown in the following Table.

In data set [2] the test system is HT-29 cells. The data set can be described thus: Inhibition test for sphere-forming ability of cancer cells (Test Example 1), HT-29. Conditions: for IC50: concentration for 50% inhibition of cell proliferation, read-out: IC50 (μmol/L) HT-29 (Sphere IC50 value); for (100%-inhibition rate of cell proliferation) at 1 μmol/L, HT-29: value with %; for viability at 1 µM: read-out: (100%-inhibition rate of cell proliferation) at 1 μmol/L, 1 μmol/L, value with %.
Description: as §1, §2

For data set [3], the system named is FaDu cells. Nature of the data set: Inhibition test for sphere-forming ability of cancer cells (Test Example 1), FaDu. Conditions: for IC50: concentration for 50% inhibition of cell proliferation, read-out: IC50 (μmol/L) FaDu (Sphere IC50 value); for (100%-inhibition rate of cell proliferation) at 1 μmol/L, FaDu: value with %; for viability at 1 µM: read-out: (100%-inhibition rate of cell proliferation) at 1 μmol/L, 1 μmol/L, value with %.
Description: as §1, §2

Where a name gives a salt, the structure may show the parent alone. Read-outs that look alike come from different tables or passages of the source.

As for `CCOc1ncc(C(=O)Nc2cn(Cc3cccc(Cl)c3)cn2)cc1Cl` [Example 220], the IC50 in data set [1] was more than 10 µmol/L; in data set [2], 4.25 µmol/L; in data set [3] it was 0.77 µmol/L.
As for `O=C(Nc1cn(Cc2cccc(C(F)(F)F)c2)cn1)c1ccccc1CO` [Example 250, 2-(Hydroxymethyl)-N-{1-[3-(trifluoromethyl)benzyl]-1H-imidazol-4-yl}benzamide], the IC50 in data set [1] (Homo sapiens) was more than 10 µmol/L; in data set [2] (Homo sapiens), 8.19 µmol/L.
As to `COc1ccc(C(=O)Nc2cn(Cc3ccc(C)c(Cl)c3)cn2)cc1OC` [Example 295], the “(100%-inhibition rate of cell proliferation) at 1 μmol/L, HCT-116” value in data set [1] is reported as 83.0%. Further, in data set [2], the “(100%-inhibition rate of cell proliferation) at 1 μmol/L, HT-29” value was 37.8%. Besides, the “(100%-inhibition rate of cell proliferation) at 1 μmol/L, FaDu” value in data set [3] came out at 31.8%.
With `Cc1ccc(F)c(Cn2cnc(NC(=O)/C(F)=C/c3cccnc3)c2)c1F` [Example 116], the values for the IC50 in data set [1] (Homo sapiens), in data set [2] (Homo sapiens) and in data set [3] (Homo sapiens) were more than 10 µmol/L, 0.8 µmol/L and 0.93 µmol/L, respectively.
Turning to `COc1ccc(C(=O)Nc2cn(Cc3cccc(OC(F)(F)F)c3)cn2)cn1` [Example 212], the IC50 in data set [1] is 0.78 µmol/L; in data set [2], 0.99 µmol/L; in data set [3] it was 0.84 µmol/L.
As to `COc1ccc(C(=O)Nc2cn(Cc3ccc(C(F)(F)F)cc3)cn2)cc1OC` [Example 287], in data set [1], the “(100%-inhibition rate of cell proliferation) at 1 μmol/L, HCT-116” value is 95.8%. Besides, the “(100%-inhibition rate of cell proliferation) at 1 μmol/L, HT-29” value in data set [2] is on record as 124%. In data set [3], the “(100%-inhibition rate of cell proliferation) at 1 μmol/L, FaDu” value worked out at 53.0%.
As to `Cc1ccc(F)c(Cn2cnc(NC(=O)/C=C/c3cccnc3)c2)c1F` [Example 113], the values for the IC50 in data set [1] (Homo sapiens), in data set [2] (Homo sapiens) and in data set [3] (Homo sapiens) were 0.54 µmol/L, 0.53 µmol/L and more than 10 µmol/L, respectively.
With `COc1cc(/C=C/C(=O)Nc2cn(Cc3cccc(Cl)c3)cn2)c([N+](=O)[O-])cc1OC` [Example 75], the IC50 was 7.56 µmol/L in data set [1], 6.45 µmol/L in data set [2] and 7.19 µmol/L in data set [3].
Take `O=C(/C=C/c1c[nH]cn1)Nc1cn(Cc2cccc(Cl)c2)cn1` [Example 90]: the results for the IC50 in data set [1], in data set [2] and in data set [3] were 8.17 µmol/L, 7.87 µmol/L and 6.32 µmol/L, respectively.
As to `COc1ccc(/C=C/C(=O)Nc2cn(Cc3cccc(Cl)c3)cn2)cc1OC` [Example 66], the values for the IC50 in data set [1], in data set [2] and in data set [3] were 0.09 µmol/L, 0.07 µmol/L and 0.06 µmol/L, respectively. In data set [1] (Test Example 1, summary in words, cell line not given (HCT-116, HT-29, FaDu tested)), the “inhibitory effect on the sphere-forming ability of cancer cells” value is “particularly potent inhibitory effect”.
In the case of `O=C(/C=C/c1cccc(Cl)c1)Nc1cn(Cc2cccc(Cl)c2)cn1` [Example 58], the IC50 turned out to be 6.99 µmol/L in data set [1], 4.89 µmol/L in data set [2] and 6.52 µmol/L in data set [3].
Consider `O=C(/C=C/c1cncc(F)c1)Nc1cn(Cc2cccc(Cl)c2)cn1` [Example 42, (E)-N-(1-(3-Chlorobenzyl)-1H-imidazol-4-yl)-3-(5-fluoropyridin-3-yl)acrylamide], for which the IC50 in data set [1] (Homo sapiens) amounted to 0.96 µmol/L; in data set [2] (Homo sapiens), 0.7 µmol/L; in data set [3] (Homo sapiens), 5.77 µmol/L.
With `Cc1cccc(C(=O)Nc2cn(Cc3cccc(Cl)c3)cn2)n1` [Example 279], the viability at 1 µM in data set [1] (Homo sapiens) was 87.4%; in data set [2] (Homo sapiens), 42.3%; in data set [3] (Homo sapiens) it was 47.2%.
As for `O=C(Nc1cn(Cc2cccc(Cl)c2)cn1)/C(F)=C/c1cccnc1` [Example 43, (Z)—N-(1-(3-Chlorobenzyl)-1H-imidazol-4-yl)-2-fluoro-3-(pyridin-3-yl)acrylamide], the IC50 in data set [1] (Homo sapiens) was 0.85 µmol/L; in data set [2] (Homo sapiens), 0.49 µmol/L; in data set [3] (Homo sapiens) it was 0.69 µmol/L.
`O=C(/C=C/c1c[nH]c2ccccc12)Nc1cn(Cc2cccc(Cl)c2)cn1` [Example 89]: the IC50 in data set [1] came out at 0.96 µmol/L; in data set [2], 0.61 µmol/L; in data set [3], 0.04 µmol/L.
`Cn1cc(C(=O)Nc2cn(Cc3cccc(Cl)c3)cn2)ccc1=O` [Example 243]: the viability at 1 µM in data set [1] (Homo sapiens) was found to be 23.8%; in data set [2] (Homo sapiens) it was 19.5%; in data set [3] (Homo sapiens), 29%.
With `O=C(/C=C/c1cncc(Br)c1)Nc1cn(Cc2cccc(Cl)c2)cn1` [Example 45], the figures for the IC50 in data set [1] (Homo sapiens), in data set [2] (Homo sapiens) and in data set [3] (Homo sapiens) were 6.38 µmol/L, 0.88 µmol/L and 0.81 µmol/L, respectively.
With `CCOc1cccc(/C=C/C(=O)Nc2cn(Cc3cccc(Cl)c3)cn2)c1` [Example 64], the IC50 in data set [1] worked out at 9.79 µmol/L; in data set [2], 0.69 µmol/L; in data set [3], 0.59 µmol/L.
Consider `Cc1ccc(F)c(Cn2cnc(NC(=O)c3ccc(OC(C)C)nc3)c2)c1F` [Example 217], for which the IC50 was determined as 0.22 µmol/L in data set [1], 0.48 µmol/L in data set [2] and 0.75 µmol/L in data set [3].
In the case of `CCOc1ccc(/C=C/C(=O)Nc2cn(Cc3cccc(C(F)(F)F)c3)cn2)cn1` [Example 107], the figures for the IC50 in data set [1] (Homo sapiens), in data set [2] (Homo sapiens) and in data set [3] (Homo sapiens) were more than 10 µmol/L, 0.04 µmol/L and 0.07 µmol/L, respectively.
As for `COc1ccc(C(=O)Nc2cn(Cc3cccc(C(F)(F)F)c3)cn2)cc1OC` [Example 165], the “(100%-inhibition rate of cell proliferation) at 1 μmol/L, HCT-116” value in data set [1] came to 31.9%. Further, the “(100%-inhibition rate of cell proliferation) at 1 μmol/L, HT-29” value in data set [2] turned out to be 28.0%. In addition, in data set [3], the “(100%-inhibition rate of cell proliferation) at 1 μmol/L, FaDu” value is 24.1%.
With `CCOc1ccc(C(=O)Nc2cn(Cc3cccc(Cl)c3)cn2)cn1` [Example 203], the results for the IC50 in data set [1], in data set [2] and in data set [3] were 0.9 µmol/L, 0.71 µmol/L and 0.9 µmol/L, respectively.
As to `C=Cc1ncc(C(=O)Nc2cn(Cc3cccc(C(F)(F)F)c3)cn2)cc1F` [Example 99, 6-Ethenyl-5-fluoro-N-{1-[3-(trifluoromethyl)benzyl]-1H-imidazol-4-yl}nicotinamide], the IC50 in data set [1] (Homo sapiens) came to 6.12 µmol/L; in data set [2] (Homo sapiens), 2.52 µmol/L.
For the compound `Nc1ccc(/C=C/C(=O)Nc2cn(Cc3cccc(Cl)c3)cn2)cc1` [Example 3, (E)-3-(4-Aminophenyl)-N-(1-(3-chlorobenzyl)-1H-imidazol-4-yl)acrylamide Dihydrochloride], the values for the IC50 in data set [1] (Homo sapiens), in data set [2] (Homo sapiens) and in data set [3] (Homo sapiens) were 6.76 µmol/L, 3.58 µmol/L and 3.13 µmol/L, respectively.
In the case of `COc1ccc(C(=O)Nc2cn(Cc3cccc(Cl)c3)cn2)c(OC)n1` [Example 189], the IC50 was determined as 4.94 µmol/L in data set [1] and 4.64 µmol/L in data set [2].
Regarding `COc1ccc(OC)c(/C=C/C(=O)Nc2cn(Cc3cccc(C(F)(F)F)c3)cn2)c1` [Example 233], the IC50 in data set [1] (Homo sapiens) was determined as 4.35 µmol/L; in data set [2] (Homo sapiens), 5.46 µmol/L.
Consider `O=C(Nc1cn(Cc2cccc(C(F)(F)F)c2)cn1)c1cc2ccccc2cn1` [Example 178], for which the IC50 in data set [1] worked out at 9.6 µmol/L; in data set [2], 8.13 µmol/L.
`O=C(Nc1cn(Cc2cccc(C(F)(F)F)c2)cn1)c1cccnn1` [Example 182]: the IC50 in data set [1] is more than 10 µmol/L; in data set [2], 5.6 µmol/L.
For `O=C(Nc1cn(Cc2cccc(C(F)(F)F)c2)cn1)c1cc2cnccc2s1` [Example 194], the figures for the IC50 in data set [1] and in data set [2] were 6.05 µmol/L and 2.84 µmol/L, respectively.
As for `O=C(Nc1cn(Cc2cccc(C(F)(F)F)c2)cn1)c1ccc2ncccc2n1` [Example 184], the IC50 in data set [1] turned out to be 8.16 µmol/L; in data set [2], 9.07 µmol/L.
As to `O=C(/C=C/c1cc(O)ccc1O)Nc1cn(Cc2cccc(C(F)(F)F)c2)cn1` [Example 235, (2E)-3-(2,5-Dihydroxyphenyl)-N-{1-[3-(trifluoromethyl)benzyl]-1H-imidazol-4-yl}prop-2-enamide Hydrochloride], the IC50 came out at 3.84 µmol/L in data set [1] (Homo sapiens) and 8.77 µmol/L in data set [2] (Homo sapiens).
For `COc1ccc(NC(=O)c2cn(Cc3cccc(Cl)c3)cn2)cn1` [Example 263], the IC50 in data set [1] was more than 10 µmol/L; in data set [2], 8.49 µmol/L.
Turning to `O=C(Nc1cn(Cc2cccc(C(F)(F)F)c2)cn1)c1cnc(Br)c(F)c1` [Example 227], the IC50 in data set [1] was 9.06 µmol/L; in data set [2], 8 µmol/L.
`COc1ccc(NC(=O)c2cn(Cc3cc(F)c(F)c(F)c3)cn2)cn1` [Example 254]: the IC50 in data set [1] is more than 10 µmol/L; in data set [2], 6.45 µmol/L.
Turning to `O=C(Nc1cn(Cc2cccc(C(F)(F)F)c2)cn1)c1ccc(-c2ccc(CO)nc2)cc1` [Example 246, 4-[6-(Hydroxymethyl)pyridin-3-yl]-N-{-[3-(trifluoromethyl)benzyl]-1H-imidazol-4-yl}benzamide], the IC50 in data set [1] (Homo sapiens) was determined as 6.72 µmol/L; in data set [2] (Homo sapiens) it was 6.36 µmol/L.
